The results in this text go back to patent US20210246140A1, “MODULATORS OF METABOTROPIC GLUTAMATE RECEPTOR 2” (The General Hospital Corporation, priority 2020, published 2021).

Data set [1] is described as follows: Plasma protein binding assay (equilibrium dialysis, RED device). In kind it is in vitro ADME. To be noted: rat plasma. The method, then:
Disposable RED device inserts (product 90006) were from Thermos Scientific (Waltham, Mass.). Each insert was made of two side-by-side chambers separated by a vertical cylinder of dialysis membrane (MWCO 8,000) validated for minimal non-specific binding. A stock solution of the test compound in DMSO was spiked into the rat plasma to reach a concentration of 10 μM. 400 μL of sample solution was placed into the sample chamber of the RED device, and 600 μL of phosphate-buffered saline (PBS) was added to the buffer chamber of the RED device. Samples were prepared in triplicates. The plate was covered with aluminum sealing cover and incubated at 37° C. on an orbital shaker at approximately 200 rpm for 5 h. After incubation, 300 μL of post-dialysis samples from the buffer and sample chambers were transferred to different microcentrifuge tubes. To the buffer sample was added 300 μL of plasma, and an equal volume of buffer was added to the collected plasma sample. 600 μL of cold acetonitrile was added to the samples, and the samples were vortexed and incubated for 30 min on ice and then were centrifuged at 14000 rpm for 10 min. Supernatant was transferred to vial for HPLC analysis (XTerra™ MS C18 5μ, 2.1×250 mm column; Gradient elution from 5% to 90% B in 30 min; 0.1 M ammonium formate in water (A) and acetonitrile (B); UV 254 nm; 100 μL of injection volume). The percentage of the test bound compound was calculated as % Free=(Concentration in buffer chamber/Concentration in plasma chamber)×100%; % Bound=100%−% Free (FIG. 6).
The experimental lipophilicity was measured by using liquid-liquid partition between n-octanol and water (“shake-flask method”) [see ref. 54]. […] The plasma protein binding comprises compounds' binding to albumin, α1-acid glycoprotein and lipoproteins once delivered to the bloodstream. This property was evaluated for compounds 1 and 2 by equilibrium dialysis [see ref. 56], where two chambers were separated by a dialysis membrane (MWCO 8 kD). The plasma protein bindings of 1 and 2 are 87.2% and 88.7%, respectively (see FIGS. 20 and 6). Therefore, the high plasma free fraction of compounds 1 and 2 (>10%) would allow enough free drug concentration in blood stream to reach the brain targets.
In general terms: In equilibrium dialysis free small molecules cross a membrane that holds back macromolecules.

Data set [2] is described as follows: Microsomal stability in rat liver microsomes. In kind it is in vitro ADME. The method, then: Compound stability in rat liver microsomal was tested using a published method. [see refs. 57, 58] In a vial 1.5 μL of test compound (1 mM in DMSO stock solution) was mixed with 432 μL of PBS (50 mM, pH 7.4). The mixture was kept at 37° C. for 10 min before adding 13 μL of Sprague-Dawley rat liver microsomes (Sigma-Aldrich, No. M9066). The vial was vortexed and shaken at 37° C. for 5 min, followed by addition of 50 μL of NADPH (10 mM in PBS stock solution) to start the reaction. The mixture was incubated at 37° C. for 0, 5, 15, 30, 45 min, respectively, and quenched by addition of 250 μL of ice-cold acetonitrile and 3 μL of the internal standard (0.5 mM in DMSO). The quenched solutions were centrifuged at 10,000 g for 15 min. The supernatant was collected and quantitated by RP-HPLC (Phenomenex Luna® column 5 μC18, 100 Å, 250×4.6 mm; 0.7 mL/min, 15 min, Acetonitrile/water/0.1% FA). The procedure was repeated three times for each compound. Compound 1-OH was used as internal standard and compound ML128 served as positive control. The percentage of remaining intact test-compound was calculated by (peak area at the specific time point)/(peak area at 0 min)×100%. Each procedure was repeated three times (FIGS. 8 and 9). For FIG. 8, the natural logarithm (In) of peak area ratio (test compound peak area/internal standard peak area) was plotted against time and the gradient of the line was determined. Subsequently, the half-life (t1/2) min was calculated as 0.693/k, where the elimination rate constant (k) equals to negative gradient. V (μL/mg) was obtained as a ratio of volume of incubation (μL)/protein in the incubation (mg). Finally, the intrinsic clearance (CLint) (μL/min/mg protein) was calculated as V×0.693/t1/2.
The in vitro plasma and liver microsomal stability of 1 and 2 were studied by incubating the test compounds in rat serum and rat liver microsomes as well as NADPH cofactor, respectively, using previously published methods [see refs. 57, 58]. […] The solution stability of 1 was evaluated with buffer solutions at pH 5.0, 7.4 and 9.4, respectively (FIGS. 10 and 20) [see refs. 61].
(In general: Liver microsomes are a subcellular fraction often used to study metabolism.)

`COc1cc(C(F)(F)F)ccc1C1CCN(Cc2nc3ncccc3n2C)CC1` [Compound 1]: the plasma protein binding in data set [1] (equilibrium dialysis, 10 μM) stood at 87.2%. Besides, the fraction unbound at 5 h, 10 μM in data set [1] (read-out: plasma free fraction) is greater than 0.1. In data set [2] (Sprague-Dawley, pH 7.4, rat liver microsomes, read-out: intrinsic clearance CLint), the microsomal CLint at 3 µM is 17.9 µL/min/mg. For the same compound, the “microsomal stability” value in data set [2] (rat liver microsomes with NADPH, ML128 as positive control) is “reasonable microsomal stability”.
